Tests used:
ERK [1] = test: ERK activation in HEK293 cells; format: cell-based, human
Experimental: (§1) Cell stimulation, immunoblotting, and immunoprecipitation: Cells or neurons are grown in 6-well or 12-well plates to 80-90% confluence. The cells are starved in serum-free DMEM overnight, and then incubated with receptor agonists at 37° C. for the indicated durations. In some experiments, signaling inhibitors are added 45 minutes before simulation. Incubation is terminated by placing the tissue culture cluster on ice and rapidly aspirating the medium, followed by the addition of ice-cold RIPA^+ buffer (50 mM Tris-HCl, pH 7.5, 150 mM NaCl, 1% NP-40, 0.5% deoxycholate, 0.1% SDS, 1 mM NaVO3, and protease inhibitor (Calbiochem, San Diego, Calif.)) and incubation for 15 minutes with shaking. After centrifugation (14,000×g at 4° C. for 15 minutes), the supernatant is collected and the protein concentration is measured and adjusted using RIPA^+ buffer. […] The proteins are transferred to PVDF membrane (Millipore), detected with the primary antibodies (including anti-active ERK; anti-p-Tyr clone 4G10, Upstate; anti-TH; anti-DAT, sigma, anti-β-tubulin, etc.) and visualized with the SuperSignal™ West Pico chemiluminescent kit (Pierce Biotechnology, Rockford, Ill.). The intensity of bands is quantified using ImageQuant™ 5.2 (Amersham). […]
It was determined that A9 could activate ERK while characterizing the transactivation of receptor tyrosine kinases by the dopamine D2 receptor.

ERK [2] = test: ERK activation in primary rat neostriatal neuron cultures; format: cell-based
Experimental: Primary Neuronal Cultures: The substantia nigra or striatal region is dissected from 4 day-old Sprague-Dawley rats and incubated in minimum essential medium (MEM) containing 20 U/ml papain for 2 hours at 37° C. The tissue is then triturated using fire-polished Pasteur pipettes in MEM supplemented with 10% fetal bovine serum, 0.45% glucose, […] insulin, 0.5 mM glutamine, 100 U/ml penicillin, and 100 μg/ml streptomycin. Cells are plated on 18 mm diameter poly-D-lysine-coated glass coverslips (Fisher 12-545-84 18cir-1D) at a density of 75,000 cells per coverslip for immunofluorescence imaging or in 12-well or 6-well tissue culture plates for immunoblotting studies. […]
Cell stimulation, immunoblotting, and immunoprecipitation: Cells or neurons are grown in 6-well or 12-well plates to 80-90% confluence. […] After centrifugation (14,000×g at 4° C. for 15 minutes), the supernatant is collected and the protein concentration is measured and adjusted using RIPA^+ buffer. […] The proteins are transferred to PVDF membrane (Millipore), detected with the primary antibodies (including anti-active ERK; anti-p-Tyr clone 4G10, Upstate; anti-TH; anti-DAT, sigma, anti-β-tubulin, etc.) and visualized with the SuperSignal™ West Pico chemiluminescent kit (Pierce Biotechnology, Rockford, Ill.). The intensity of bands is quantified using ImageQuant™ 5.2 (Amersham). […]

ERK1 (p44) = ERK1 (p44) activation in NS20Y cells; format: cell-based, mouse
Experimental: as §1, with “buffer. Samples (30 μl) with equal amounts of protein mixed with Laemmli loading buffer are denatured at 70° C. for 10 minutes and separated by SDS-PAGE.” for “buffer.”

[3] = Stability of A9 in solution; format: physicochemical
Experimental: 5. Physical properties: A9 stock can be dissolved in ethanol, methylene chloride, or DMSO as high as 25 mg/ml. The stock of A9 can then be diluted in water or saline. The final concentration in saline can reach 10 mg/ml according to our experience. A9 is very stable in organic solvents and keeps its activity (indicated by its ability to stimulate ERK activation in NS20Y cells, data not shown) for 6 months at room temperature. […] In saline, its half-life was reported to be 4 days at 37° C. (Golumb, Atherosclerosis 125:171-182, 1996). […] A similar evaluation of the chemical nature of any tyrphostin can be used to determine if it is of use to induce neurite outgrowth and regeneration in a subject.

ERK [4] = test: ERK activation in SH-SY5Y cells; format: cell-based, human
Experimental: SH-SY5Y cells are treated with A9, NGF ([…]), or EGF (10 ng/ml) for different durations, including 5, 15, 30, 60, and 120 minutes, to generate time-response curves for A9, NGF, and EGF. The level of ERK activation is measured by immunoblotting for the active (phosphorylated) ERK. The time-point with the maximum ERK response determined above is chosen for immunoprecipitation studies to assess the activation of PI3K, PDK1, and PKB/Akt. Cells are lysed with RIPA^+ buffer and precipitated with polyclonal antibodies for PI3K, PDK1, and PKB/Akt, and then the presence of p-Tyr in the precipitates will be determined by immunoblotting with the specific p-Tyr monoclonal antibody 4G10 (Upstate).

Question: For `CC(C)(C)c1cc(C=C(C#N)C#N)cc(C(C)(C)C)c1O` [A9, tyrphostin A9], which ERK activation (ERK [1]) is on record?
Answer: The ERK activation was “but not in HEK293”.

Question: What about the “D2 receptor-induced activation of ERK” value (ERK [1]; A9 pretreatment) of the same compound?
Answer: Its value is “prevented D2 receptor-induced activation of ERK”.

Question: And the “A9-stimulated ERK activation” value (ERK [2])?
Answer: Its value is “also observed”.

Question: And the “ERK1 (p44) activation” value (ERK1 (p44))?
Answer: The value was “activated ERK1 (p44) the most”.

Question: What about the “Effect of repeated freeze/thaw cycles on activity” value ([3]; in organic solvents) of the same compound?
Answer: Its value is “do not affect its activity”.

Question: What about the “Time for which activity is kept in organic solvents” value ([3]; room temperature, activity by ERK activation in NS20Y cells) of the same compound?
Answer: The value was 6 months.

Question: And the “ERK activation in SH-SY5Y, indicated by use of MEK inhibitor PD98059” value (ERK [4])?
Answer: The value was “ERK is activated”.
